Experimental data taken from ChEMBL document CHEMBL1124625, “Flavones. 2. Synthesis and structure-activity relationship of flavodilol and its analogues, a novel class of antihypertensive agents with catecholamine depleting properties” (J Med Chem, 1989).

Columns and labels:
Rattus norvegicus [1] = experiment: % decrease in heart norepinephrine in anesthetized spontaneously hypertensive rats(SHR) at 5 hours after administration of 35 mg/kg dose perorally; format: functional; details: route oral
Rattus norvegicus [2] = experiment: % decrease in heart norepinephrine in anesthetized spontaneously hypertensive rats(SHR) at 5 hours after administration of 75 mg/kg dose perorally; format: functional; details: route oral
Rattus norvegicus [3] = experiment: Systolic blood pressure (SBP) in anesthetized spontaneously hypertensive rats(SHR) at 7.5 hours after administration of 17 mg/kg dose, perorally; format: functional; details: route oral
Rattus norvegicus [4] = experiment: Systolic blood pressure (SBP) in anesthetized spontaneously hypertensive rats(SHR) at 7.5 hours after administration of 35 mg/kg dose perorally; format: functional; details: route oral
Rattus norvegicus [5] = experiment: % decrease in hypothalamus dopamine in anesthetized spontaneously hypertensive rats(SHR) at 5 hours after administration of 75 mg/kg dose perorally; format: functional; details: route oral
Rattus norvegicus [6] = experiment: % decrease in hypothalamus norepinephrine in anesthetized spontaneously hypertensive rats(SHR) at 5 hours after administration of 35 mg/kg dose perorally; format: functional; details: route oral
Rattus norvegicus [7] = experiment: % decrease in hypothalamus norepinephrine in anesthetized spontaneously hypertensive rats(SHR) at 5 hours after administration of 75 mg/kg dose perorally; format: functional; details: route oral
Rattus norvegicus [8] = experiment: % decrease in heart 5-HT in anesthetized spontaneously hypertensive rats(SHR) at 5 hours after administration of 35 mg/kg dose perorally; value significantly different was control; format: functional; details: route oral
Rattus norvegicus [9] = experiment: % decrease in heart 5-HT in anesthetized spontaneously hypertensive rats(SHR) at 5 hours after administration of 4 mg/kg dose perorally; format: functional; details: route oral
Rattus norvegicus [10] = experiment: % decrease in heart 5-HT in anesthetized spontaneously hypertensive rats(SHR) at 5 hours after administration of 75 mg/kg dose perorally; value significantly different was control; format: functional; details: route oral
Rattus norvegicus [11] = experiment: % decrease in heart 5-HT in anesthetized spontaneously hypertensive rats(SHR) at 5 hours after administration of 8 mg/kg dose perorally; format: functional; details: route oral
Rattus norvegicus [12] = experiment: % decrease in hypothalamus dopamine in anesthetized spontaneously hypertensive rats(SHR) at 5 hours after administration of 17.5 mg/kg dose perorally; format: functional; details: route oral
Rattus norvegicus [13] = experiment: % decrease in hypothalamus dopamine in anesthetized spontaneously hypertensive rats(SHR) at 5 hours after administration of 4 mg/kg dose perorally; format: functional; details: route oral
Rattus norvegicus [14] = experiment: % decrease in hypothalamus dopamine in anesthetized spontaneously hypertensive rats(SHR) at 5 hours after administration of 8 mg/kg dose perorally; format: functional; details: route oral
Rattus norvegicus [15] = experiment: Systolic blood pressure (SBP) in anesthetized spontaneously hypertensive rats(SHR) before administration of 17 mg/kg dose, perorally; format: functional; details: route oral
Rattus norvegicus [16] = experiment: (§1) Systolic blood pressure (SBP) in anesthetized spontaneously hypertensive rats(SHR) before administration of 35 mg/kg dose perorally; format: functional; details: route oral
Rattus norvegicus [17] = experiment: % decrease in heart norepinephrine in anesthetized spontaneously hypertensive rats(SHR) at 5 hours after administration of 17.5 mg/kg dose perorally; format: functional; details: route oral
Rattus norvegicus [18] = experiment: % decrease in heart norepinephrine in anesthetized spontaneously hypertensive rats(SHR) at 5 hours after administration of 4 mg/kg dose perorally; format: functional; details: route oral
Rattus norvegicus [19] = experiment: % decrease in heart norepinephrine in anesthetized spontaneously hypertensive rats(SHR) at 5 hours after administration of 8 mg/kg dose perorally; format: functional; details: route oral
Rattus norvegicus [20] = experiment: % decrease in hypothalamus norepinephrine in anesthetized spontaneously hypertensive rats(SHR) at 5 hours after administration of 17.5 mg/kg dose perorally; format: functional; details: route oral
Rattus norvegicus [21] = experiment: Systolic blood pressure (SBP) in anesthetized spontaneously hypertensive rats (SHR) before administration of 75 mg/kg dose perorally.; format: functional; design: unit: mmHg; details: route oral
Rattus norvegicus [22] = experiment: % decrease in hypothalamus norepinephrine in anesthetized spontaneously hypertensive rats(SHR) at 5 hours after administration of 4 mg/kg dose perorally; format: functional; details: route oral
Rattus norvegicus [23] = experiment: % decrease in hypothalamus norepinephrine in anesthetized spontaneously hypertensive rats(SHR) at 5 hours after administration of 8 mg/kg dose perorally; format: functional; details: route oral
Rattus norvegicus [24] = experiment: % decrease in heart 5-HT in anesthetized spontaneously hypertensive rats(SHR) at 5 hours after administration of 17.5 mg/kg dose perorally; value significantly different was control; format: functional; details: route oral
Adrenergic receptor beta [25] = biological target: T1, Adrenergic receptor beta (Rattus norvegicus, UniProt P18090+P10608+P26255)
Description: Inhibition constant from beta adrenergic receptor binding assay

Rattus norvegicus [26] = experiment: % decrease in hypothalamus DA in anesthetized spontaneously hypertensive rats(SHR) at 5 hours after administration of 35 mg/kg dose perorally; details: route oral
Rattus norvegicus [27] = experiment: Systolic blood pressure (SBP) in anesthetized spontaneously hypertensive rats(SHR) at 7.5 hours after administration of 75 mg/kg dose perorally; details: route oral
Rattus norvegicus [28] = experiment: % decrease in systolic blood pressure (SBP) in anesthetized spontaneously hypertensive rats(SHR) after administration of 8 mg/kg dose perorally; details: route oral
Rattus norvegicus [29] = experiment: % decrease in systolic blood pressure (SBP) in anesthetized spontaneously hypertensive rats(SHR) after administration of 4 mg/kg dose perorally; details: route oral
Rattus norvegicus [30] = experiment: % decrease in systolic blood pressure (SBP) in anesthetized spontaneously hypertensive rats(SHR) after administration of 75 mg/kg dose perorally; details: route oral
Rattus norvegicus [31] = experiment: % decrease in systolic blood pressure (SBP) in anesthetized spontaneously hypertensive rats(SHR) after administration of 17.5 mg/kg dose perorally; data statistically significant; details: route oral
Adrenergic receptor beta [32] = biological target: T1, Adrenergic receptor beta; experiment: Inhibition constant obtained from beta adrenergic receptor binding assay; format: protein assay
Rattus norvegicus [33] = experiment: as §1; format: functional; design: unit not given here; details: route oral
Rattus norvegicus [34] = experiment: % decrease in heart norepinephrine in anesthetized spontaneously hypertensive rats(SHR) at 5 hours after administration of 150 mg/kg dose perorally; format: functional; details: route oral
Rattus norvegicus [35] = experiment: % decrease in heart 5-HT in anesthetized spontaneously hypertensive rats(SHR) at 5 hours after administration of 75 mg/kg dose perorally; *value significantly different was control.; format: functional; details: route oral
Rattus norvegicus [36] = experiment: % decrease in heart 5-HT in anesthetized spontaneously hypertensive rats(SHR) at 5 hours after administration of 150 mg/kg dose perorally; format: functional; details: route oral
Rattus norvegicus [37] = experiment: % decrease in hypothalamus dopamine in anesthetized spontaneously hypertensive rats(SHR) at 5 hours after administration of 35 mg/kg dose perorally; format: functional; details: route oral
Rattus norvegicus [38] = experiment: % decrease in heart 5-HT in anesthetized spontaneously hypertensive rats(SHR) at 5 hours after administration of 35 mg/kg dose perorally; format: functional; details: route oral
Rattus norvegicus [39] = experiment: % decrease in hypothalamus norepinephrine in anesthetized spontaneously hypertensive rats(SHR) at 5 hours after administration of 150 mg/kg dose perorally; format: functional; details: route oral
Rattus norvegicus [40] = experiment: % decrease in hypothalamus DA in anesthetized spontaneously hypertensive rats(SHR) at 5 hours after administration of 150 mg/kg dose perorally; details: route oral
Rattus norvegicus [41] = experiment: % decrease in systolic blood pressure (SBP) in anesthetized spontaneously hypertensive rats(SHR) after administration of 150 mg/kg dose perorally; details: route oral
Rattus norvegicus [42] = experiment: Systolic blood pressure (SBP) in anesthetized spontaneously hypertensive rats(SHR) at 7.5 hours after administration of 75 mg/kg dose perorally; NS is not statistically significant
Rattus norvegicus [43] = experiment: % decrease in heart 5-HT in anesthetized spontaneously hypertensive rats(SHR) at 5 hours after administration of 75 mg/kg dose perorally; format: functional; details: route oral
Rattus norvegicus [44] = experiment: Systolic blood pressure (SBP) in anesthetized spontaneously hypertensive rats(SHR) at 7.5 hours after administration of 75 mg/kg dose perorally; NS is not statistically significant.
Rattus norvegicus [45] = experiment: % decrease in hypothalamus DA in anesthetized spontaneously hypertensive rats(SHR) at 5 hours after administration of 75 mg/kg dose perorally; *value significantly different was control.; details: route oral
Rattus norvegicus [46] = experiment: Systolic blood pressure (SBP) in anesthetized spontaneously hypertensive rats(SHR) before administration of 65 mg/kg dose perorally; format: functional; details: route oral
Rattus norvegicus [47] = experiment: Systolic blood pressure (SBP) in anesthetized spontaneously hypertensive rats(SHR) at 7.5 hours after administration of 65 mg/kg dose perorally; NS is not statistically significant.
Rattus norvegicus [48] = experiment: % decrease in adrenal epinephrine in anesthetized spontaneously hypertensive rats(SHR) at 24 hours after administration of 150 mg/kg dose perorally; format: functional; details: route oral
Rattus norvegicus [49] = experiment: % decrease in heart norepinephrine in anesthetized spontaneously hypertensive rats(SHR) at 24 hours after administration of 150 mg/kg dose perorally; format: functional; details: route oral
Rattus norvegicus [50] = experiment: % decrease in brain norepinephrine in anesthetized spontaneously hypertensive rats(SHR) at 24 hours after administration of 150 mg/kg dose perorally; details: route oral

CCCNCC(O)COc1ccc2c(=O)cc(-c3ccccc3)oc2c1 (stereo unspecified) [FLAVODILOL]
Decrease in heart norepinephrine (Rattus norvegicus [1]): 89%
Decrease in heart norepinephrine (Rattus norvegicus [2]): 94%
Decrease in Systolic blood pressure (Rattus norvegicus [3]): 15%
Decrease in Systolic blood pressure (Rattus norvegicus [4]): 27%
Decrease (Rattus norvegicus [5]): 38%
Decrease in hypothalamus norepinephrine (Rattus norvegicus [6]): 19%
Decrease in hypothalamus norepinephrine (Rattus norvegicus [7]): 15%
Decrease (Rattus norvegicus [8]): 61%
Decrease (Rattus norvegicus [9]): -10%
Decrease (Rattus norvegicus [10]): 63%
Decrease (Rattus norvegicus [11]): 11%
Decrease (Rattus norvegicus [12]): 31%
Decrease (Rattus norvegicus [13]): 4%
Decrease (Rattus norvegicus [14]): -6%
Systolic blood pressure (Rattus norvegicus [15]): 199
Systolic blood pressure (Rattus norvegicus [16]): 196
Decrease in heart norepinephrine (Rattus norvegicus [17]): 79%
Decrease in heart norepinephrine (Rattus norvegicus [18]): 21%
Decrease in heart norepinephrine (Rattus norvegicus [19]): 38%
Decrease in hypothalamus norepinephrine (Rattus norvegicus [20]): 6%
Systolic blood pressure (Rattus norvegicus [21]): 203
Decrease in hypothalamus norepinephrine (Rattus norvegicus [22]): 2%
Decrease in hypothalamus norepinephrine (Rattus norvegicus [23]): 0%
Decrease (Rattus norvegicus [24]): 49%
Ki (Adrenergic receptor beta [25]): 4 nM
% decrease hypothalamus DA (Rattus norvegicus [26]): 37%
Decrease in Systolic blood pressure (Rattus norvegicus [27]): 32%
% decrease SBP (Rattus norvegicus [28]): 3%
% decrease SBP (Rattus norvegicus [29]): 7%
% decrease SBP (Rattus norvegicus [30]): 31%
% decrease SBP (Rattus norvegicus [31]): 6%

O=c1cc(-c2ccccc2)oc2cc(OCC(O)CNC3CCCCC3)ccc12 (stereo unspecified)
Ki (Adrenergic receptor beta [32]): 5500 nM
Decrease in Systolic blood pressure (Rattus norvegicus [4]): 20%
Systolic blood pressure (Rattus norvegicus [33]): 201

COc1c(-c2ccccc2)oc2cc(OCC(O)CNC(C)C)ccc2c1=O (stereo unspecified)
Decrease (Rattus norvegicus [34]): 70%
Decrease (Rattus norvegicus [1]): 55%
Decrease (Rattus norvegicus [2]): 61%
Decrease (Rattus norvegicus [35]): 29%
Decrease (Rattus norvegicus [36]): 37%
Decrease (Rattus norvegicus [37]): 29%
Decrease (Rattus norvegicus [5]): 26%
Decrease (Rattus norvegicus [6]): 12%
Decrease (Rattus norvegicus [7]): 16%
Decrease (Rattus norvegicus [38]): 7%
Decrease (Rattus norvegicus [39]): 28%
% decrease hypothalamus DA (Rattus norvegicus [40]): 37%
% decrease SBP (Rattus norvegicus [41]): 16%
Decrease in Systolic blood pressure (Rattus norvegicus [42]): Not significant

CN(C)CC(O)COc1ccc2c(=O)cc(-c3ccccc3)oc2c1 (stereo unspecified)
Decrease (Rattus norvegicus [34]): 7%
Decrease (Rattus norvegicus [2]): 18%
Decrease (Rattus norvegicus [36]): 0%
Decrease (Rattus norvegicus [43]): 0%
Decrease (Rattus norvegicus [7]): 20%
Systolic blood pressure (Rattus norvegicus [21]): 207
Decrease (Rattus norvegicus [39]): 37%
% decrease hypothalamus DA (Rattus norvegicus [40]): 47%
% decrease SBP (Rattus norvegicus [30]): 0%
% decrease SBP (Rattus norvegicus [41]): 5%
Decrease in Systolic blood pressure (Rattus norvegicus [44]): Not significant
% decrease hypothalamus DA (Rattus norvegicus [45]): 29%

CC(C)NCC(O)COc1ccc2c(=O)cc(-c3ccc(N)cc3)oc2c1 (stereo unspecified)
Systolic blood pressure (Rattus norvegicus [46]): 206
Decrease in Systolic blood pressure (Rattus norvegicus [47]): Not significant

CC(C)NCC(O)COc1ccc2c(=O)c(-c3ccccc3)coc2c1 (stereo unspecified)
Decrease (Rattus norvegicus [48]): 100%
Decrease (Rattus norvegicus [49]): 100%
% decrease SBP (Rattus norvegicus [41]): 34%
Decrease (Rattus norvegicus [50]): 37%
